In one series the test system is mouse liver. In words: rAAV (AV.Alkphos) gene transfer in mouse liver in vivo, portal vein. On the set-up: species or system C57B6 mice. As for the experimental part: FIG. 19. […] Recombinant AV.Alkphos (5×10^10 particles) was administered to mouse liver either as virus alone in PBS, virus in combination with 40 μM Z-LLL in PBS, or virus in combination with 200 μM LLnL in PBS. Virus was directly instilled into portal vein of the C57B6 mice. AAV-mediated alkaline phosphatase transgene expression was evaluated by histology staining at 2 and 4 weeks post-infection in frozen tissue sections. The average percentage of the alkphos positive cells in all 6 liver lobes of each individual animal was quantified by NIH image analysis software. The data represents the mean (+/−SEM) of 3 independent mice for each time point in each group.
Recombinant AV.Alkphos (5×10^10 particles) was also administered to mouse liver either as virus alone in PBS, virus in combination with 40 μM Z-LLL in PBS, or virus in combination with 20 μM LLnL in PBS. Virus was directly instilled into portal vein of the C57B6 mice. AAV-mediated alkaline phosphatase transgene expression was evaluated by histology staining at 2 and 4 weeks post infection in frozen tissue sections ([…]).

Series [1] deals with polarized human airway epithelia. In words: In situ localization of S35-labeled rAAV particles (photoemulsion, morphometry). The format is cell-based. The settings on record: 2 hours post-infection, apical or basolateral infection. As for the experimental part:
FIG. 13. In situ localization of rAAV in the polarized airway epithelia using S^35 labeled virus. Polarized human airway epithelia were infected with S^35-labeled virus (MOI=50,000 particles/cell) from either the apical or basolateral side (+/−LLnL). At 2 hours post-infection, transwells were washed with media three times and fixed in 4% paraformaldehyde overnight prior to cryoprotection in sucrose and OCT embedding. 10 μm frozen sections were overlaid with photoemulsion and developed after 5 weeks of exposure. Panel A depicts the typical localization pattern following basolateral infection in the presence of LLnL. Arrows indicate nuclear-associated virus. Panel B presents enlargements of boxed regions in Panel A. Blinded morphometric quantification was performed by counting the number of nuclear-associated and cytoplasmic radioactive grains of 10 random fields, as shown in Panel A. A total of 60 cells was quantitated per field, to give a total of 600 cells per sample and 2400 cells per condition. Results in Panel C are the mean +/−SEM of four independent samples for each condition.
Cryosections of polarized airway epithelial cells infected with ^35S-labeled AV.GFP3ori (MOI=50,000 particles/cell) from the apical or basolateral sides in the presence or absence of LLnL were overlaid with photographic emulsion and exposed for 5 weeks prior to developing. […]

For series [2], the system named is polarized human bronchial epithelial cells. The format is cell-based. How it is done:
FIGS. 7A and 7B. Proteasome inhibitors differentially augment rAAV transduction from the apical or basolateral surfaces of airway epithelia. The efficiency and time course of rAAV transduction were evaluated in polarized airway epithelial cultures following infection with rAV.GFPori3 (MOI=10,000 particles/cell) in the presence or absence of 40 μM LLnL. Transgene expression was monitored by indirect fluorescence microscopy at the indicted time points by quantifying the mean number of GFP positive cells per 10× field (mean +/−SEM of 3 independent samples for each time point). The effect of LLnL treatment was compared between matched sets of tissue samples at each time point following infection from the apical (FIG. 7A) or basolateral (FIG. 7B) surfaces. The photomicrographs on the right side of each figure illustrate representative 20× fields for the 3 and 22 day post-infection time points.
FIG. 9. Effects of different agents on AAV transduction from the basal surface of polarized bronchial epithelia. Fully differentiated human bronchial airway epithelia were treated with the indicated agents at the time of AAV infection (MOI=10,000 particles/cell) from the basolateral surface. […] Since most of the tested agents (except for hydroxyurea) were dissolved in DMSO, a vehicle control of 1% (vol/vol) DMSO was also performed to exclude the possibility of a non-specific effect. GFP expression was monitored at 48 hours post-infection by counting the number of GFP positive cells per 10 random 10× fields in the culture dishes. The data represent the mean +/−SEM of three independent infections for each tested chemical.
FIG. 10. The proteasome inhibitor LLnL preferentially induces AAV transduction in ciliated cells. The cell types transduced by AAV were examined by alkaline phosphatase staining 3 days following basolateral infection of polarized epithelial cultures with AV.Alkphos infection (MOI=10,000 particles/cell) in the presence of or absence of 40 μM LLnL. […] 8 μm paraffin sections were used to histologically quantify the types of cells transduced. Three classifications were used, ciliated cells (with alkphos expression localized to the apical membrane and cilia), basal cells residing in the lower half of the epithelium with no contact with the lumen, and non-ciliated, columnar cells. Panel C (without LLnL) and D (with LLnL) show representative neutral red counter-stained cross-sections for each condition. The numbers of alkphos stained cells/2000 epithelial cells for the various cell types transduced by AAV are presented in panel E (mean +/−SEM from three independent Millicell insert samples).
FIGS. 11A and 11B. Optimization of LLnL-enhanced transduction in polarized bronchial epithelia. Differentiated transwell cultures were infected with AV.GFP3ori (10,000 particles/cell) from either the basolateral (FIG. 11A) or the apical (FIG. 11B) surface with the indicated treatments involving LLnL and/or EGTA. All infections were carried out for 24 hours and GFP transgene expression was monitored by indirect fluorescent microscopy at the indicated times. Data represent the mean (+/−SEM, N=6) for each experimental condition. Experiments were performed in triplicate on transwells derived from samples obtained from two different patients. […]

“Also recorded” adds a separate entry of the source. Peptide text beside a SMILES is read from it. * marks the point of attachment. Cbz = O=C(OCc1ccccc1)*

This is an account of results in patent publication US7122335B1, “Compounds and methods to enhance rAAV transduction” (priority 1999, dated 2006).

Consider `CC(C)C[C@@H](C=O)NC(=O)[C@H](CC(C)C)NC(=O)[C@H](CC(C)C)NC(=O)OCc1ccccc1` [Z-LLL, N-carbobenzoxyl-L-leucinyl-L-leucinyl-L-leucinal] (Cbz-Leu-Leu-Leu-aldehyde), for which the “AAV-mediated gene transfer in mouse liver, in words” value in the series on mouse liver (40 μM Z-LLL co-administered, 2 and 4 weeks) is on record as “enhances AAV-mediated gene transfer”. Besides, the “increase in rAAV transduction in the liver” value in the series with mouse liver (1 month post-infection) is 7 fold.

With “N-acetyl-L-leucinyl-L-leucinal-L-norleucinal [LLnL]”, in series [1], the “intracellular distribution of radiolabeled rAAV particles (nuclear vs cytoplasmic grains)” value is listed as “significant increase in nuclear trafficking; also recorded: significant shift to nuclear associated grains”. In series [2] (LLnL and rAAV co-administered to the mucosal surface), the “time of peak augmentation in AAV transduction” value is on record as 22 days post-infection. In addition, in series [2] (apical infection with LLnL, by 30 days), the “maximal level of transgene expression relative to basal infection” value was “one eighth”. Besides, the “enhancement in rAAV transduction from the basolateral surface” value in series [2] (basolateral (serosal) infection MOI 10,000, agent at time of infection, GFP at 48 hours/2 days, camptothecin 0.1 μM, etoposide 10 μM, hydroxyurea 40 mM, genistein 50 μM, LLnL 40 μM) is “greater than 200 fold”. Moreover, the “effect of repeated LLnL administration on transgene expression” value in series [2] (basolateral infection, LLnL once every three days) was “increased length of peak transgene expression”. In series [2] (continual exposure to 40 μM LLnL in basal medium after basolateral infection), the “toxicity to cultured airway cells” value was “toxic to cells and ablated transgene expression by 10 days”. In series [2] (rAAV infection from the serosal surface in the presence of LLnL), the “time of transient peak in gene expression” value was 72 hours post-infection. Moreover, the AV.Alkphos transduction result in series [2] (serosal application of AV.Alkphos, 40 μM LLnL, 3 days) is given as “dramatic increase in AV.Alkphos transduction”.
